# Laboratory results reported in publication PMC7525093, “Bis-Quinolinium Cyclophane Blockers of SK Potassium Channels Are Antagonists of M3 Muscarinic Acetylcholine Receptors” (Frontiers in Pharmacology, 2020).
# Read-outs that look alike come from different tables or passages of the source.
# What was measured:
# [1] = target: T1, human P2Y1 purinergic receptor (Homo sapiens, UniProt P47900); test: R-CEPIAer ER calcium assay, CHO cells co-transfected with P2Y1 receptor; format: cell-based; details: 5 μM UCL 1684, 1 μM ATP, read-out: Fractional inhibition of second ATP response
# T1 construct: expressed in transfected cells; host or cells: CHO cells, transiently co-transfected with pCMV R-CEPIAer
# T1 sequence (P47900 whole entry): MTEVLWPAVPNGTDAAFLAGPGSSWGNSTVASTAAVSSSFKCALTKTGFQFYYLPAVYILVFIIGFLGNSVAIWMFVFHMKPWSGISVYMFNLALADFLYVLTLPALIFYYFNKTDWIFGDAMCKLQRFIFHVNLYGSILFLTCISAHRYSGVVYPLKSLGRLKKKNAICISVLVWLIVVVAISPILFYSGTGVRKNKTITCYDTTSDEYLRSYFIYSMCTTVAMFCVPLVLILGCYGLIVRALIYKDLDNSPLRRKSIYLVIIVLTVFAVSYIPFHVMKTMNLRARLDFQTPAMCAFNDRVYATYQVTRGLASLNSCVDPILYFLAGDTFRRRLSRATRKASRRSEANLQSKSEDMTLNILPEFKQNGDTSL
# Description: [Worded in the source for another target; used here, by the source, with some conditions changed.] The binding of antagonists to Gq-coupled receptors was determined by measuring IP3-mediated calcium depletion from the endoplasmic reticulum (ER). This was accomplished using CHO-K1 cells stably transfected with human M3 muscarinic acetylcholine receptor (CEM3000000, cDNA Resource Center, Bloomsburg University) and R-CEPIAer, a low affinity ER-targeted calcium indicator fluorescent protein ([Suzuki et al., 2014]). R-CEPIAer reporting of ER calcium concentration was assessed using 564 nm excitation light (>590 long-pass emission) at 20 second intervals on a Nikon swept-field confocal microscope using slit-scan mode, 2x2 Binning, and 100 millisecond frames. F/Fmax was fluorescence intensity normalized to maximal fluorescence intensity during the experiment. The response of cells to Gq-coupled receptor agonist were measured as the change in F/Fmax (ΔF/Fmax) from preagonist value to fluorescence minimum during agonist application (that occurs by IP3-mediated ER calcium depletion). […] Perfusion of each agonist application was for 2 min, while the antagonist overlapped and preceded the second agonist application by 3 min. […] IC50 was calculated by assaying fractional inhibition using a dose-response of antagonist concentrations (i.e. Figure 1D ). […]
# [2] = tested on: SK potassium channels; details: ref Campos Rosa et al., 1996; read-out: IC50, block of SK channels; cited from earlier work
# [3] = target: T2, M3 mACHR (Homo sapiens, UniProt P20309); test: [3H]-NMS competition binding, M3 mACHR-expressing CHO cell membranes; details: 0.9 nM [3H]-NMS
# T2 construct: expressed in transfected cells; host or cells: membranes of M3 mACHR-expressing CHO cells
# T2 sequence (P20309 whole entry): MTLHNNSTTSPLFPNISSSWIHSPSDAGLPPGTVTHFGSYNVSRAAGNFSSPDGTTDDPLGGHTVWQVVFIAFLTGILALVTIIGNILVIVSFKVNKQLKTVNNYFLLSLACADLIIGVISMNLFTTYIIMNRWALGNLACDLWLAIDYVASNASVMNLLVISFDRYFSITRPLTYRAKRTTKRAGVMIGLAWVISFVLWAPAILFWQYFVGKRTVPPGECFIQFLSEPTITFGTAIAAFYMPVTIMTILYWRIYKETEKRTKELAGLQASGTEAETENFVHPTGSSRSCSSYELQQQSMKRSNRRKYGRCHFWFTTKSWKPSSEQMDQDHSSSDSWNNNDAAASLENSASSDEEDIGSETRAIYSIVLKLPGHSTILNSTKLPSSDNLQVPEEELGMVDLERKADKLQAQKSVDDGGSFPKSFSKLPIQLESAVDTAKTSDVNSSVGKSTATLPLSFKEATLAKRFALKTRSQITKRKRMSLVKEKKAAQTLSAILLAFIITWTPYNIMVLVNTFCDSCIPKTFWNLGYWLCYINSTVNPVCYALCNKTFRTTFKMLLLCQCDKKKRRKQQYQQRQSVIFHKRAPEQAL
# Description: Competition binding assays were done with [^3H]-N-methyl-scopolamine ([3H]-NMS, PerkinElmer) essentially as described ([Steinfeld et al., 2010]) with minor modifications. Membrane homogenates were prepared in HEPES assay buffer (20 mM HEPES, 100 mM NaCl, and 10 mM MgCl, pH 7.4) by trituration on ice through a 26-gauge needle followed by centrifugation at 39,000g in Sorval RC-6+ centrifuge. Membranes were resuspended in assay buffer and protein concentration determined by the method of Bradford using bovine serum albumin as a standard ([Bradford, 1976]). Membranes (25 µg) were incubated along with 0.9 nM ^3H- NMS without or with UCL1684 concentrations (10^-11M to 10^-4M in triplicate) for 120 min at 30°C in 96 multiwell GF/C filter plates (MilliporeSigma) coated with 0.3% polyethyleneimine (Sigma). The assay was terminated by rapid filtration using a MilliporeSigma vacuum manifold followed by three washes with ice-cold wash buffer (20mM HEPES, pH 7.4). Filters were removed and placed in 7 ml scintillation vials containing 5 ml scintillation fluid (National Diagnostics) and radioactivity counted using a Beckman LS-6500 ß-counter. Nonspecific binding was defined by 100 µM atropine. […]
# [4] = tested on: aorta; test: Isometric aortic ring tension measurement; design: species or system mouse; details: 3.5 μM; precontracted to 300 nM phenylephrine
# Description: Mice used in these studies were BALB/C mice from Jackson Labs. All animal procedures were reviewed and approved by the University of Texas Health Science Center at San Antonio Institutional Animal Care and Use Committee. For tracheal constriction studies, animals were deeply anesthetized with isoflurane and then sacrificed by cervical dislocation. Isometric tracheal contraction measurements were performed as previously described ([Semenov et al., 2012]). Trachea were removed and surrounding tissues dissected in ice-cold physiologic saline solution (PSS) consisting of 119 mM NaCl, 4.7 mM KCl, 2.0 mM CaCl2, 1.0 mM KH2PO4, 1.17 mM MgSO4, 18 mM NaHCO3, 0.026 mM EDTA, 11 mM glucose, and 12.5 mM sucrose. Trachea were cut below the pharynx and above the primary bronchus bifurcation. Two metal wires, attached to a force transducer and micrometer (Radnoti, LLC), were threaded into the lumen of the trachea. Trachea were placed into an oxygenated organ bath (95% O2, 5% CO2), at 37°C, pH 7.35 (after bubbling with 95% O2–5% CO2). Tracheal resting tension was readjusted to 1 gram over 1 h and then challenged with 67 mM potassium PSS with NaCl adjusted to 56.7 mM to maintain proper osmolarity (KPS). Trachea were challenged two or more times until reproducible contractile responses were achieved. All subsequent experimental drug responses were normalized to the KPS response. […]
# [5] = tested on: human primary bronchial smooth muscle cells stably transfected with the human M3 muscarinic receptor; test: Cytosolic calcium imaging in human bronchial smooth muscle cells; format: cell-based
# Description: TSM cells were placed on a coverslip in a 1 ml perfusion chamber on an inverted microscope and incubated with 20 μM Cal-520 AM dye (AAT Bioquest, Sunnyvale, California, USA) in 0.2% Pluronic F-127 and 1 mM probenecid in HBSS at room temperature for 30 min. The chamber was fitted with a top adaptor and coverslip (Warner Instruments, RC37WC) to establish a closed perfusion chamber. The cells were imaged at 20 second intervals using 488 nm excitation on a Nikon swept-field confocal microscope using slit-scan mode, 2×2 Binning, and 100 millisecond frames.
# Due to the loss of functional muscarinic receptors in primary bronchial smooth muscle cells in culture, calcium imaging was performed in human primary bronchial smooth muscle cells (ScienCell, passage 3) stably transfected with the human M3 muscarinic receptor. Human M3 receptor transfected clones were stably selected with G418, and individual clones were expanded to a 10 cm dish and frozen into aliquots, and analyzed after a maximum of two additional passages.
structure (smiles),measurement,setting,value
"c1cc2cc(c1)C[n+]1ccc(c3ccccc31)NCc1ccc(cc1)CNc1cc[n+](c3ccccc13)C2 [UCL 1684, 6,12,19,20,25,26-Hexahydro-5,27:13,18:21,24-trietheno-11,7-metheno-7H-dibenzo [b,n] [1,5,12,16]tetraazacyclotricosine-5,13-diium dibromide]",inhibition at 5 µM,[1],6.7 ± 6%
same,IC50,[2],0.003 µM
same,Ki,"[3]; n=3 separate experiments, read-out: Average Ki, competition binding",0.909 µM
same,Ki,"[3]; single experiment shown, read-out: pKi, representative binding experiment (converted)",1.12 µM
same,Relaxation response of aorta,[4],7.8 ± 4.3
same,Calcium response (integral) to second carbachol relative to first,"[5]; 3.5 μM UCL 1684, 0.5 μM carbachol, human BSMC",0.38 ± 0.10
same,activity at 3.5 µM,"[5]; Homo sapiens, BSMC, read-out: CCH-evoked cytosolic calcium, % of control",38%
